Source: patent publication US20120178769A1, “NOVEL COMPOUNDS FOR INHIBITING EEF-2 KINASE ACTIVITY” (The University of Medicine and Dentistry, priority 2009, published 2012)

Legend:
eEF2K = eEF2K (Homo sapiens, UniProt O00418); details: known selenazine inhibitors; cited from earlier work
glioma cell lines = details: by inhibiting eEF2-K; Parmer et al, 1997; cited from earlier work
eEF2 kinase = eEF2 kinase (Homo sapiens, UniProt O00418); assay: eEF2 kinase activity assay with purified eEF2 (33P-ATP, SDS-PAGE, autoradiography); type: biochemical; details: purified eEF2, FIG. 1
Protocol: Recombinant eEF2 kinase (0.5 μg) was incubated with purified rabbit reticulocyte eEF2 (0.5 μg) in a reaction mixture consisting of 50 mM Hepes-KOH pH 6.6, 10 mM magnesium acetate, 5 mM DTT, 100 μM CaCl2, 0.5 μg calmodulin, 50 μM ATP, and 0.2 μCi [γ-^33P]-ATP (3000 Ci/mmol). The reactions were run at 30° C. for 15 minutes, and were terminated by incubation in an ice/water bath and addition of Laemmli sample buffer. Samples were analyzed by SDS-PAGE and autoradiography.

eEF2K, sequence (O00418 whole entry): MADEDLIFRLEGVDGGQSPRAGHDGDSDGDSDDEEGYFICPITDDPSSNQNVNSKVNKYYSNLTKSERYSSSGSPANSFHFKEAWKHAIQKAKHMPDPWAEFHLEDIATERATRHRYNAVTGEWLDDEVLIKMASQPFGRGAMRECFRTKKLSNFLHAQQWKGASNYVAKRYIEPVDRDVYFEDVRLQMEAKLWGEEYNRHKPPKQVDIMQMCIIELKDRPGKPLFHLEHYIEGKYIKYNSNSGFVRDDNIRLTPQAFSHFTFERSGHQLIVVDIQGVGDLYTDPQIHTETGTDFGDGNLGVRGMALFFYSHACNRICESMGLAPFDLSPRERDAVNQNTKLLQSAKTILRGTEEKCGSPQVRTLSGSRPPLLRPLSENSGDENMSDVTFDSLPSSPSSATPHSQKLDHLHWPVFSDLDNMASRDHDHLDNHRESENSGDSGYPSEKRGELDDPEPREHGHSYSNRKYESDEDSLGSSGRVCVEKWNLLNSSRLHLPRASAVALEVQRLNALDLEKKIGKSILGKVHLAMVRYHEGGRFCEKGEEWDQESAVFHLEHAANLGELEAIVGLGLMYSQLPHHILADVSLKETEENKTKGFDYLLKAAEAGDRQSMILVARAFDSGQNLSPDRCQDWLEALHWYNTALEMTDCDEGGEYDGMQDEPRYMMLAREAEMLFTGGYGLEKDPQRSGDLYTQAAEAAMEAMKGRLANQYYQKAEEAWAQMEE

## CCCCCC1=NC(O)(CC)CC[Se]1 (centres unmarked) [PS2]
eEF2K
  inhibition of eEF2K phosphorylative activity: known to inhibit eEF2K phosphorylative activity

## CC(=O)c1c(O)c(C)c(O)c(Cc2c(O)c3c(c(C(=O)/C=C/c4ccccc4)c2O)OC(C)(C)C=C3)c1O [Rottlerin]
Glioma cell lines
  inhibition of growth of glioma cell lines: inhibit growth of glioma cell lines

## CCC1(O)CC[Se]C(c2ccc(C)cc2)=N1 (centres unmarked) [TS2]
eEF2K
  inhibition of eEF2K phosphorylative activity: known to inhibit eEF2K phosphorylative activity

## Cc1ccc(C2=NC(C)(O)CC(C(C)C)[Se]2)cc1 (centres unmarked) [TS4]
eEF2K
  inhibition of eEF2K phosphorylative activity: known to inhibit eEF2K phosphorylative activity

## CCCCCCCCCCCCC/C=C/[C@@H](O)[C@@H](N)COP(=O)(O)O [sphingosine-1-phosphate]
eEF2 kinase
  inhibition of eEF2 kinase in vitro: inhibit eEF2 kinase in vitro
